Measured values from ChEMBL document CHEMBL1123630, “Stereospecificity in allergic contact dermatitis to simple substituted methylene lactone derivatives” (1987).

Tests used:
Assay type in all cases: functional
Cavia porcellus [1] = species: Cavia porcellus; test: Number of positive animals showing sensitization to (+)4,5-Dimethyl-3-methylene-dihydro-furan-2-one in 8 guinea pigs was determined by open epicutaneous test for the compound
Cavia porcellus [2] = species: Cavia porcellus; test: Evaluated for the open epicutaneous test and no. of animals showing erythema covering part (0.5) by (-)4,5-Dimethyl-3-methylene-dihydro-furan-2-one sensitization in guinea pigs
Cavia porcellus [3] = species: Cavia porcellus; test: Evaluated for the open epicutaneous test and no. of animals showing no reaction (0) by (+)4,5-Dimethyl-3-methylene-dihydro-furan-2-one sensitization in guinea pigs
Cavia porcellus [4] = species: Cavia porcellus; test: Evaluated for the open epicutaneous test and no. of animals showing erythema covering the whole (1) by (-)4,5-Dimethyl-3-methylene-dihydro-furan-2-one sensitization in guinea pigs
Cavia porcellus [5] = species: Cavia porcellus; test: Evaluated for the open epicutaneous test and no. of animals showing erythema covering the whole (1) by (+)4,5-Dimethyl-3-methylene-dihydro-furan-2-one sensitization in guinea pigs
Cavia porcellus [6] = species: Cavia porcellus; test: Mean reaction by (-)4,5-Dimethyl-3-methylene-dihydro-furan-2-one sensitization in guinea pigs was determined by open epicutaneous test fo the compound
Cavia porcellus [7] = species: Cavia porcellus; test: Evaluated for the open epicutaneous test and no. of animals showing erythema and swelling(2) by (-)4,5-Dimethyl-3-methylene-dihydro-furan-2-one sensitization in guinea pigs
Cavia porcellus [8] = species: Cavia porcellus; test: Number of positive animals showing sensitization to (-)4,5-Dimethyl-3-methylene-dihydro-furan-2-one in 8 guinea pigs was determined by open epicutaneous test for the compound
Cavia porcellus [9] = species: Cavia porcellus; test: Evaluated for the open epicutaneous test and no. of animals showing erythema and swelling(2) by (+)4,5-Dimethyl-3-methylene-dihydro-furan-2-one sensitization in guinea pigs
Cavia porcellus [10] = species: Cavia porcellus; test: Evaluated for the open epicutaneous test and no. of animals showing erythema covering part (0.5) by (+)4,5-Dimethyl-3-methylene-dihydro-furan-2-one sensitization in guinea pigs
Cavia porcellus [11] = species: Cavia porcellus; test: Mean reaction by (+)4,5-Dimethyl-3-methylene-dihydro-furan-2-one sensitization in guinea pigs was determined by open epicutaneous test fo the compound
Cavia porcellus [12] = species: Cavia porcellus; test: Evaluated for the open epicutaneous test and no. of animals showing no reaction (0) by (-)4,5-Dimethyl-3-methylene-dihydro-furan-2-one sensitization in guinea pigs
Cavia porcellus [13] = species: Cavia porcellus; test: Evaluated for the open epicutaneous test and no. of animals showing erythema and swelling(2) by (-)4-Methyl-3-methylene-dihydro-furan-2-one sensitization in guinea pigs
Cavia porcellus [14] = species: Cavia porcellus; test: Number of positive animals showing sensitization to (+)4-Methyl-3-methylene-dihydro-furan-2-one in 6 guinea pigs was determined by open epicutaneous test for the compound
Cavia porcellus [15] = species: Cavia porcellus; test: Evaluated for the open epicutaneous test and no. of animals showing erythema covering part (0.5) by (+)4-Methyl-3-methylene-dihydro-furan-2-one sensitization in guinea pigs
Cavia porcellus [16] = species: Cavia porcellus; test: Evaluated for the open epicutaneous test and no. of animals showing erythema covering part (0.5) by (-)4-Methyl-3-methylene-dihydro-furan-2-one sensitization in guinea pigs
Cavia porcellus [17] = species: Cavia porcellus; test: Number of positive animals showing sensitization to (-)4-Methyl-3-methylene-dihydro-furan-2-one in 6 guinea pigs was determined by open epicutaneous test for the compound
Cavia porcellus [18] = species: Cavia porcellus; test: Evaluated for the open epicutaneous test and no. of animals showing no reaction (0) by (+)4-Methyl-3-methylene-dihydro-furan-2-one sensitization in guinea pigs
Cavia porcellus [19] = species: Cavia porcellus; test: Evaluated for the open epicutaneous test and no. of animals showing erythema covering the whole (1) by (+)4-Methyl-3-methylene-dihydro-furan-2-one sensitization in guinea pigs
Cavia porcellus [20] = species: Cavia porcellus; test: Mean reaction by (-)4-Methyl-3-methylene-dihydro-furan-2-one sensitization in guinea pigs was determined by open epicutaneous test fo the compound
Cavia porcellus [21] = species: Cavia porcellus; test: Evaluated for the open epicutaneous test and no. of animals showing erythema and swelling(2) by (+)4-Methyl-3-methylene-dihydro-furan-2-one sensitization in guinea pigs
Cavia porcellus [22] = species: Cavia porcellus; test: Evaluated for the open epicutaneous test and no. of animals showing erythema covering the whole (1) by (-)4-Methyl-3-methylene-dihydro-furan-2-one sensitization in guinea pigs
Cavia porcellus [23] = species: Cavia porcellus; test: Evaluated for the open epicutaneous test and no. of animals showing no reaction (0) by (-)4-Methyl-3-methylene-dihydro-furan-2-one sensitization in guinea pigs
Cavia porcellus [24] = species: Cavia porcellus; test: Mean reaction by (+)4-Methyl-3-methylene-dihydro-furan-2-one sensitization in guinea pigs was determined by open epicutaneous test fo the compound
Cavia porcellus [25] = species: Cavia porcellus; test: Number of positive animals showing sensitization to (+)4-Methyl-3-methylene-dihydro-furan-2-one in 3 guinea pigs was determined by open epicutaneous test for the compound
Cavia porcellus [26] = species: Cavia porcellus; test: Number of positive animals showing sensitization to (-)4-Methyl-3-methylene-dihydro-furan-2-one in 7 guinea pigs was determined by open epicutaneous test for the compound

Row | SMILES | No. of positive animals (Cavia porcellus [1]) | No. of animals (Cavia porcellus [2]) | No. of animals (Cavia porcellus [3]) | No. of animals (Cavia porcellus [4]) | No. of animals (Cavia porcellus [5]) | Mean reaction (Cavia porcellus [6]) | No. of animals (Cavia porcellus [7]) | No. of positive animals (Cavia porcellus [8]) | No. of animals (Cavia porcellus [9]) | No. of animals (Cavia porcellus [10]) | Mean reaction (Cavia porcellus [11]) | No. of animals (Cavia porcellus [12]) | No. of animals (Cavia porcellus [13]) | No. of animals (Cavia porcellus [15]) | No. of animals (Cavia porcellus [16]) | No. of animals (Cavia porcellus [18]) | No. of animals (Cavia porcellus [19]) | Mean reaction (Cavia porcellus [20]) | No. of animals (Cavia porcellus [21]) | No. of animals (Cavia porcellus [22]) | further results
1 | C=C1C(=O)O[C@@H](C)[C@@H]1C | 0 | 3 | 8 | 5 | 0 | 0.8 | 0 | 8 | 0 | 0 | 0 | 0 | – | – | – | – | – | – | – | – | –
2 | C=C1C(=O)O[C@H](C)[C@H]1C | 6 | 2 | 2 | 3 | 1 | 0.5 | 0 | 5 | 0 | 5 | 0.4 | 3 | – | – | – | – | – | – | – | – | –
3 | C=C1C(=O)OC[C@H]1C | – | – | – | – | – | – | – | – | – | – | 0.9 | 6 | 0 | 1 | 0 | 0 | 5 | 0 | 0 | 0 | No. of positive animals (Cavia porcellus [14]): 6; No. of positive animals (Cavia porcellus [17]): 0
4 | C=C1C(=O)OC[C@@H]1C | – | – | – | – | – | – | – | – | – | – | – | – | 5 | 3 | 0 | 4 | 0 | 1.7 | 0 | 2 | No. of animals (Cavia porcellus [23]): 0; Mean reaction (Cavia porcellus [24]): 0.2; No. of positive animals (Cavia porcellus [25]): 3; No. of positive animals (Cavia porcellus [26]): 7
